# Reference: US12553889B2, “Small molecules targeting the intrinsically disordered structural ensemble of α-synuclein protect against diverse α-synuclein mediated dysfunctions” (The Regents of the University of California, priority 2019, dated 2026)
# pKd: −log10 of the molar value.
# What was measured:
# [1] = tested on: αSyn; test: Western analyses of αSyn levels in H4 cells; assay type: cell-based, human; details: H4 cells transiently transfected with split Gaussia luciferase tagged αSyn, 150 μM
# Procedure: All materials were purchased from Invitrogen (Carlsbad, CA) unless stated otherwise. Cell from a 6 well dish were washed twice with PBS and lysed with 250 μl of RIPA Lysis buffer with protease and phosphatase inhibitors (Sigma, St. Louis, MO). Lysates were incubated on a shaker for 15 minutes at 4° C. and spun down for 15 min. at 10,000 g. Total protein concentrations were determined by BCA assay (Thermo Fisher, Waltham, MA). 1 ml of media was collected and incubated with protease and phosphatase inhibitors and 50 μl of Ni-agarose beads to collect the His-tagged αSyn (Qiagen, Hilden, Germany) for 2 hrs at […]. Beads were centrifuged and washed in PBS. Cell samples and pelleted beads from the media were placed into Bolt LDS (lithium dodecyl sulfate) sample buffer with 20% β-mercaptoethanol and boiled for 15 min. 5-15 μg of sample (cells) and an equivalent fraction of media were electrophoresed on Bolt 4-12% Bis-Tris Plus gels with Bolt MES SDS running buffer and the Precision Plus Protein Dual Color Standards (Biorad, Hercules, CA) molecular weight markers. After electrophoresis, the separated proteins were transferred onto a 0.2 μm pore size PVDF membrane for 90 minutes at 400 mA and 4° C. in Bolt Transfer Buffer using BioRad midi transfer chambers. […] Membranes were scanned and quantitated using the Odyssey CLx Imaging System (LI-COR, Lincoln, NE). […]
# [2] = target: αSyn (Homo sapiens, UniProt P37840); test: Biacore T200 SPR kinetics and affinity to tethered αSyn; assay type: binding; parameters: made in house; host or cells: E. coli
# Procedure: RU (resonance units) from the Biacore machine are plotted against time. […] 576755 was injected at six concentrations in two-fold dilutions starting at 200 μM in running buffer containing 25 mM TRIS pH 7.4, 100 mM NaCl, 1% DMSO. […] All data were fitted to 1:1 binding model using the T200 software evaluation.
# A Biacore Surface Plasmon Resonance (SPR) method was developed to detect binding to αSyn both in a high throughput manner (Biacore 4000 machine) and in a sensitive format (Biacore T200). A dual capture method was developed in which αSyn is captured both by an antibody to the central region of αSyn and by immobilized N-termal His-tagged αSyn. […]
# Surface Plasmon Resonance Measurements. […] Time-dependent binding curves were monitored simultaneously. […] The time-dependent binding curves were monitored simultaneously. […]
# Affinity constants were determined using the Biacore T200 evaluation software V.1 by curve fitting using a 1:1 binding model. […] The rate of complex formation during fragment injection is calculated according to the equation (2): dR/dt=kaC(Rmax−R)−kdR (1:1 interaction), where R is the SPR signal in response units (RU), C is the concentration of analyte, Rmax is the maximum analyte binding capacity in RU, and dR/dt is the rate of SPR signal change. […]
smiles,measurement,setting,value
"CNC(=O)c1cc(O)ccc1N [Compound 576755, 2-amino-5-hydroxy-N-methylbenzamide]",impact on cellular αSyn protein levels,[1],no impact on αSyn levels
same,pKd,"[2]; six concentrations in two-fold dilutions from 200 μM, 25 mM TRIS pH 7.4, 100 mM NaCl, 1% DMSO, read-out: binding affinity for αSyn (kinetics fits, 1:1 binding model)",4.14
same,"binding behaviour (Biacore traces, off rates)",[2]; tethered αSyn,"well-behaved, robust and reversible binding"
